From the NIST ThermoML archive (doi:10.1021/acs.jced.5b00992)
Numbers after ± are expanded uncertainties.

Columns and labels:
[1] = wn = mass fraction of the nth substance listed; conditions: 313.15 K, 88.4 kPa, Liquid; for viscosity: Capillary tube (Ostwald / Ubbelohde) method; for mass density: Pycnometric method
[2] = refractive index (Na D-line) (dimensionless); wn = mass fraction of the nth substance listed; conditions: 313.15 K, 88.4 kPa, Liquid, Standard Abbe refractometry

Compound	viscosity ([1]; w1 = 0.129)	mass density ([1]; w1 = 0.129)	refractive index ([2]; w1 = 0.129)	viscosity ([1]; w1 = 0.3237)	mass density ([1]; w1 = 0.3237)	refractive index ([2]; w1 = 0.3237)
O=S(=O)([O-])[O-].[K+].[K+] [potassium sulfate] + O	0.8181 ± 0.082 mPa·s	1097.5 ± 2.3 kg/m3	1.3466 ± 0.0006			
O=S(=O)([O-])[O-].[Na+].[Na+] [sodium sulfate] + O				2.871 ± 0.29 mPa·s	1317.6 ± 3.7 kg/m3	1.3774 ± 0.0006
